# According to US10703760B2, “Morphic forms of marizomib and uses thereof” (Celgene International II Sàrl, priority 2016, dated 2020):
# Columns and labels:
# Format in all cases: physicochemical
# [1] = Polymorphism screening of Sample 1 (solubility observations, maturation, cooling, XRPD); design: key to Obs. at r.t. 10 vol. / Obs. at r.t. 20 vol. / Obs. at r.t. 30 vol. / Obs. at r.t. 40 vol. / Obs. at r.t. 50 vol. / Maturation 50° C./r.t. / Cooling at 5° C.: ✓ = Soluble; X = Insoluble,; conditions: for Maturation 50° C./r.t.: heat-cool cycles 24 h; for Cooling at 5° C.: held at 5° C. for 48 h
# Procedure: Polymorphism studies on marizomib were carried out in different solvents and conditions to understand the polymorphic behavior of the free form. Marizomib (Sample 1, 30 mg) was dissolved or suspended in the given solvent at room temperature. Solvent was added until the material dissolved or up to a maximum of 50 volumes. The suspensions were matured between 50° C. and room temperature heat-cool cycles (8 h per cycle) for 24 h. The solutions were cooled to and held at 5° C. for 48 h. If no solid was obtained then the solutions were allowed to evaporate slowly at room temperature. All the recovered solids were analyzed by XRPD.
# [2] = Hydrolysis of marizomib / chemical purity by HPLC after solvent exposure; conditions: starting material 98.2%
# Procedure: Purity analysis was performed on an Agilent HP1100 series system equipped with a diode array detector and using ChemStation software vB.04.03 using the method set forth in Table-5.
# 30 mg of Sample 1 was suspended in the given solvent shown in Table 6 (1 ml) at room temperature. The samples were matured between 50° C. and room temperature heat-cool cycles (8 h per cycle) for 96 h. The solids were filtered, air dried and analyzed by XRPD.
# [3] = Variable temperature XRPD
# Procedure: Samples run under non-ambient conditions were mounted on a silicon wafer with heat-conducting compound. The sample was then heated to the appropriate temperature at 20° C./min and subsequently held isothermally for 1 minute before data collection was initiated.
# [4] = Thermogravimetric analysis (TGA); conditions: heated at 10° C./min under nitrogen
# Procedure: TGA data were collected on a TA Instruments Q500 TGA, equipped with a 16-position auto-sampler. The instrument was temperature calibrated using certified Alumel™ and Nickel. Typically 5-10 mg of each sample was loaded onto a pre-tared aluminum DSC pan and heated at 10° C./min from ambient temperature to 350° C. A nitrogen purge at 60 ml/min was maintained over the sample.
# TG analyses were performed using a TA Instruments Q5000 IR thermogravimetric analyzer. Temperature calibration was performed using nickel and Alumel™. Each sample was placed in an aluminum pan. The sample was hermetically sealed, the lid pierced, then inserted into the TG furnace. The furnace was heated under nitrogen.
structure (smiles),measurement,setting,value
"C[C@@]12OC(=O)[C@]1([C@@H](O)[C@@H]1C=CCCC1)NC(=O)[C@@H]2CCCl [Sample 1, marizomib]",Obs. at r.t. 10 vol.,[1]; 2-Propanol,X
same,Obs. at r.t. 20 vol.,[1]; 2-Propanol,X
same,Obs. at r.t. 30 vol.,[1]; 2-Propanol,X
same,Obs. at r.t. 40 vol.,[1]; 2-Propanol,X
same,Obs. at r.t. 50 vol.,[1]; 2-Propanol,X
same,Maturation 50° C./r.t.,[1]; 2-Propanol,X
same,Morphic form obtained from polymorphism screen (XRPD),"[1]; 20 solvents, maturation, cooling, evaporation",Form I was the only form obtained
same,Obs. at r.t. 10 vol.,[1]; Acetone,X
same,Obs. at r.t. 20 vol.,[1]; Acetone,X
same,Obs. at r.t. 30 vol.,[1]; Acetone,X
same,Obs. at r.t. 40 vol.,[1]; Acetone,X
same,Obs. at r.t. 50 vol.,[1]; Acetone,X
same,Maturation 50° C./r.t.,[1]; Acetone,✓
same,Cooling at 5° C.,[1]; Acetone,✓
same,Obs. at r.t. 10 vol.,[1]; Acetonitrile,X
same,Obs. at r.t. 20 vol.,[1]; Acetonitrile,X
same,Obs. at r.t. 30 vol.,[1]; Acetonitrile,X
same,Obs. at r.t. 40 vol.,[1]; Acetonitrile,X
same,Obs. at r.t. 50 vol.,[1]; Acetonitrile,X
same,Maturation 50° C./r.t.,[1]; Acetonitrile,X
same,Obs. at r.t. 10 vol.,[1]; Anisole,X
same,Obs. at r.t. 20 vol.,[1]; Anisole,X
same,Obs. at r.t. 30 vol.,[1]; Anisole,X
same,Obs. at r.t. 40 vol.,[1]; Anisole,X
same,Obs. at r.t. 50 vol.,[1]; Anisole,X
same,Maturation 50° C./r.t.,[1]; Anisole,X
same,Obs. at r.t. 10 vol.,[1]; Chloroform,X
same,Obs. at r.t. 20 vol.,[1]; Chloroform,✓
same,Cooling at 5° C.,[1]; Chloroform,✓
same,Obs. at r.t. 10 vol.,[1]; Cumene,X
same,Obs. at r.t. 20 vol.,[1]; Cumene,X
same,Obs. at r.t. 30 vol.,[1]; Cumene,X
same,Obs. at r.t. 40 vol.,[1]; Cumene,X
same,Obs. at r.t. 50 vol.,[1]; Cumene,X
same,Maturation 50° C./r.t.,[1]; Cumene,X
same,Obs. at r.t. 10 vol.,[1]; DMA,X
same,Obs. at r.t. 20 vol.,[1]; DMA,✓
same,Cooling at 5° C.,[1]; DMA,✓
same,Obs. at r.t. 10 vol.,[1]; DMF,X
same,Obs. at r.t. 20 vol.,[1]; DMF,✓
same,Cooling at 5° C.,[1]; DMF,✓
same,Obs. at r.t. 10 vol.,[1]; Dichloromethane,X
same,Obs. at r.t. 20 vol.,[1]; Dichloromethane,X
same,Obs. at r.t. 30 vol.,[1]; Dichloromethane,X
same,Obs. at r.t. 40 vol.,[1]; Dichloromethane,X
same,Obs. at r.t. 50 vol.,[1]; Dichloromethane,X
same,Maturation 50° C./r.t.,[1]; Dichloromethane,X
same,Obs. at r.t. 10 vol.,[1]; Dimethyl sulfoxide,X
same,Obs. at r.t. 20 vol.,[1]; Dimethyl sulfoxide,X
same,Obs. at r.t. 30 vol.,[1]; Dimethyl sulfoxide,X
same,Obs. at r.t. 40 vol.,[1]; Dimethyl sulfoxide,X
same,Obs. at r.t. 50 vol.,[1]; Dimethyl sulfoxide,X
same,Maturation 50° C./r.t.,[1]; Dimethyl sulfoxide,✓
same,Cooling at 5° C.,[1]; Dimethyl sulfoxide,✓
same,Obs. at r.t. 10 vol.,[1]; Ethanol,X
same,Obs. at r.t. 20 vol.,[1]; Ethanol,X
same,Obs. at r.t. 30 vol.,[1]; Ethanol,X
same,Obs. at r.t. 40 vol.,[1]; Ethanol,X
same,Obs. at r.t. 50 vol.,[1]; Ethanol,X
same,Maturation 50° C./r.t.,[1]; Ethanol,X
same,Obs. at r.t. 10 vol.,[1]; Ethyl acetate,X
same,Obs. at r.t. 20 vol.,[1]; Ethyl acetate,X
same,Obs. at r.t. 30 vol.,[1]; Ethyl acetate,X
same,Obs. at r.t. 40 vol.,[1]; Ethyl acetate,X
same,Obs. at r.t. 50 vol.,[1]; Ethyl acetate,X
same,Maturation 50° C./r.t.,[1]; Ethyl acetate,✓
same,Cooling at 5° C.,[1]; Ethyl acetate,✓
same,Obs. at r.t. 10 vol.,[1]; Isopropyl acetate,X
same,Obs. at r.t. 20 vol.,[1]; Isopropyl acetate,X
same,Obs. at r.t. 30 vol.,[1]; Isopropyl acetate,X
same,Obs. at r.t. 40 vol.,[1]; Isopropyl acetate,X
same,Obs. at r.t. 50 vol.,[1]; Isopropyl acetate,X
same,Maturation 50° C./r.t.,[1]; Isopropyl acetate,X
same,Obs. at r.t. 10 vol.,[1]; MEK,X
same,Obs. at r.t. 20 vol.,[1]; MEK,X
same,Obs. at r.t. 30 vol.,[1]; MEK,X
same,Obs. at r.t. 40 vol.,[1]; MEK,X
same,Obs. at r.t. 50 vol.,[1]; MEK,X
same,Maturation 50° C./r.t.,[1]; MEK,✓
same,Cooling at 5° C.,[1]; MEK,✓
same,Obs. at r.t. 10 vol.,[1]; MIBK,X
same,Obs. at r.t. 20 vol.,[1]; MIBK,X
same,Obs. at r.t. 30 vol.,[1]; MIBK,X
same,Obs. at r.t. 40 vol.,[1]; MIBK,X
same,Obs. at r.t. 50 vol.,[1]; MIBK,X
same,Maturation 50° C./r.t.,[1]; MIBK,X
same,Obs. at r.t. 10 vol.,[1]; Nitromethane,X
same,Obs. at r.t. 20 vol.,[1]; Nitromethane,X
same,Obs. at r.t. 30 vol.,[1]; Nitromethane,X
same,Obs. at r.t. 40 vol.,[1]; Nitromethane,X
same,Obs. at r.t. 50 vol.,[1]; Nitromethane,X
same,Maturation 50° C./r.t.,[1]; Nitromethane,X
same,Obs. at r.t. 10 vol.,[1]; Tetrahydrofuran,X
same,Obs. at r.t. 20 vol.,[1]; Tetrahydrofuran,✓
same,Cooling at 5° C.,[1]; Tetrahydrofuran,✓
same,Obs. at r.t. 10 vol.,[1]; Toluene,X
same,Obs. at r.t. 20 vol.,[1]; Toluene,X
same,Obs. at r.t. 30 vol.,[1]; Toluene,X
same,Obs. at r.t. 40 vol.,[1]; Toluene,X
same,Obs. at r.t. 50 vol.,[1]; Toluene,X
same,Maturation 50° C./r.t.,[1]; Toluene,X
same,Obs. at r.t. 10 vol.,[1]; n-Heptane,X
same,Obs. at r.t. 20 vol.,[1]; n-Heptane,X
same,Obs. at r.t. 30 vol.,[1]; n-Heptane,X
same,Obs. at r.t. 40 vol.,[1]; n-Heptane,X
same,Obs. at r.t. 50 vol.,[1]; n-Heptane,X
same,Maturation 50° C./r.t.,[1]; n-Heptane,X
same,Obs. at r.t. 10 vol.,[1]; tert-Butylmethyl ether,X
same,Obs. at r.t. 20 vol.,[1]; tert-Butylmethyl ether,X
same,Obs. at r.t. 30 vol.,[1]; tert-Butylmethyl ether,X
same,Obs. at r.t. 40 vol.,[1]; tert-Butylmethyl ether,X
same,Obs. at r.t. 50 vol.,[1]; tert-Butylmethyl ether,X
same,Maturation 50° C./r.t.,[1]; tert-Butylmethyl ether,X
same,Chemical purity (HPLC) of solid isolated from polymorphism screen,[2]; isolated from EtOAc experiment,96.8%
same,Chemical purity (HPLC) of solid isolated from polymorphism screen,[2]; isolated from EtOH experiment,97.4%
same,Morphic form on heating (variable temperature XRPD),[3]; 25° C. to 160° C.,remained as Form I
same,Discoloration (white to yellow) temperature; melting and/or degradation after about five minutes hold,[3]; during variable temperature XRPD,about 160 °C
"C[C@@]12OC(=O)[C@]1([C@@H](O)[C@@H]1C=CCCC1)NC(=O)[C@@H]2CCCl [Sample 3, marizomib]",TGA: no weight loss observed until (weight loss can be due to sample degradation),[4],about 175 °C
